Source: patent publication US20100216767A1, “QUINAZOLINES FOR PDK1 INHIBITION” (priority 2006, published 2010)

Molecular target: T1, PDK1 kinase (Homo sapiens, UniProt O15530)
T1 sequence (O15530 1-556): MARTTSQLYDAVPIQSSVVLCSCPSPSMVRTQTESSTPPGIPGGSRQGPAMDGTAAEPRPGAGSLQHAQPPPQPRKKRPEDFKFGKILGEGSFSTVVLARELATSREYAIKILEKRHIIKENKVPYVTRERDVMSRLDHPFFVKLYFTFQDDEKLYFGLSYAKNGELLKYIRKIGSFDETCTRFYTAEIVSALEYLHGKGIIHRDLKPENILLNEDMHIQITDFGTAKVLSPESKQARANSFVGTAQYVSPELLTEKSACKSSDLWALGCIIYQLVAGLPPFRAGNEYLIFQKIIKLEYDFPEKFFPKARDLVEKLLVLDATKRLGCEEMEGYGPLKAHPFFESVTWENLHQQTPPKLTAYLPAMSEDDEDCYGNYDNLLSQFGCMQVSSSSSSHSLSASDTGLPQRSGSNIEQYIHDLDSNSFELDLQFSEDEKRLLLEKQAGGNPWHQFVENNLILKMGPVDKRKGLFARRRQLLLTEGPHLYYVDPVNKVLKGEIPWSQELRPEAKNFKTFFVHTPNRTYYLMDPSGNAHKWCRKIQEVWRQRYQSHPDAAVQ
Assay: PDK1 Kinase Alpha Screen Assay
Assay type: biochemical
Settings: Table 1; 10 μM ATP, 50 nM PDK1-4 peptide
Procedure: Reagents/Concentrations: The PDK1-4 peptide substrate, biotin-[…]-NH2, (SEQ ID NO: 1), was purchased from the Tufts University Core Facility. The final concentration of PDK1-4 peptide substrate was 50 nM. The ATP substrate (adenosine-[…] triphosphate) was purchased from Roche Diagnostics. The final concentration of ATP substrate was 10 μM. Phospho-(Ser/Thr) PKA substrate antibody was purchased from Cell Signaling Technology. The final concentration of antibody was 0.3 mg/mL. The Alpha Screen Protein A detection kit containing donor and acceptor beads was purchased from PerkinElmer Life Sciences. The final concentration of both donor and acceptor beads was 25 μg/mL. Alpha Screen was used for detection. The biotinylated-PDK1-4 peptide was phosphorylated by PDK1 kinase using the ATP substrate. The biotinylated-PDK1-4 peptide substrate was bound to the streptavidin coated donor bead. The antibody was bound to the protein A coated acceptor bead. The antibody bound to the phosphorylated form of the biotinylated PDK-1 peptide substrate, bringing the donor and acceptor beads into close proximity. Laser irradiation of the donor bead at 680 nm generated a flow of short-lived singlet oxygen molecules. When the donor and acceptor beads were in close proximity, the reactive oxygen generated by the irradiation of the donor beads initiated a luminescence/fluorescence cascade in the acceptor beads. This process led to a highly amplified signal with output in the 530-620 nm range. Assays were carried out in 50 mM Tris, pH=7.5, 10 mM MgCl2, 0.1% BSA, 0.01% Tween-20, 2 mM dithiolthreitol, 2.5% dimethyl sulfoxide. Reactions were stopped by adding 50 mM Tris, pH=7.5, 90 mM EDTA, 0.1% BSA, 0.01% Tween-20.
Procedure: To 10 μl, of PDK1-4 peptide, […] of test compound in dimethyl sulfoxide was added. PDK1 kinase and ATP were mixed, and 10 μL of the PDK1 kinase/ATP mix was added to start the reaction. The reaction was allowed to proceed for 3-18 hours. The reactions were then stopped by adding 10 μL of the EDTA-containing stop buffer. Beads were mixed with antibody, and 25 μL of the bead/antibody mix was then added to the stopped reactions. Plates were incubated at room temperature overnight to allow for detection development before being read. The assay was run in a 384-well format plate.

SMILES | IC50 [µM]
C#Cc1ccc2nc(Nc3cccc(S(N)(=O)=O)c3)ncc2c1 [Example 60, 3-(6-ethynylquinazolin-2-ylamino)benzene-sulfonamide] | < 5
C#Cc1ccc2nc(Nc3cccc(NS(C)(=O)=O)c3)ncc2c1 [Example 61, N-(3-(6-ethynylquinazolin-2-ylamino)phenyl)-methane-sulfonamide] | < 5
COc1cc(-c2cnn(C)c2)cc2cnc(Nc3ccc(S(N)(=O)=O)cc3)nc12 [Example 62, 4-(8-methoxy-6-(1-methyl-1H-pyrazol-4-yl)-quinazolin-2-ylamino)-benzenesulfonamide] | < 5
COc1cc(-c2nccs2)cc2cnc(Nc3ccc(S(N)(=O)=O)cc3)nc12 [Example 63, 4-(8-methoxy-6-(thiazol-2-yl)quinazolin-2-ylamino)-benzenesulfonamide] | < 5
COc1cc(C#CC(C)(C)O)cc2cnc(Nc3ccc(S(N)(=O)=O)cc3)nc12 [Example 65, 4-(6-(3-hydroxy-3-methylbut-1-ynyl)-8-methoxyquinazolin-2-ylamino)benzenesulfonamide] | < 5
COc1cc(C#CC(C)(C)N)cc2cnc(Nc3ccc(S(N)(=O)=O)cc3)nc12 [Example 66, 4-(6-(3-amino-3-methylbut-1-ynyl)-8-methoxyquinazolin-2-ylamino)benzenesulfonamide] | 10 to 25
NS(=O)(=O)c1ccc(Nc2ncc3cc(-c4cc[nH]n4)ccc3n2)cc1 [Example 67, 4-(6-(1H-pyrazol-3-yl)-quinazolin-2-ylamino)-benzenesulfonamide] | < 5
CC(=O)Nc1ccc2nc(Nc3ccc(S(N)(=O)=O)cc3)ncc2c1 [Example 68, N-(2-(4-Sulfamoylphenylamino)quinazolin-6-yl)acetamide] | < 5
C#Cc1cc2cnc(Nc3ccc(N4CCOCC4)cc3)nc2cc1OC [Example 69, 6-ethynyl-7-methoxy-N-(4-morpholinophenyl)-quinazolin-2-amine] | < 5
C#Cc1cc(OC)c2nc(Nc3ccc(N4CCOCC4)cc3)ncc2c1 [Example 70, 6-ethynyl-8-methoxy-N-(4-morpholinophenyl)-quinazolin-2-amine] | < 5
C#Cc1ccc2nc(Nc3ccc(C(=O)NC(C)C)cc3)ncc2c1 [Example 72, 4-(6-ethynylquinazolin-2-ylamino)-N-isopropyl-benzamide] | < 5
C#Cc1cc2cnc(Nc3ccc(C(=O)NC(C)C)cc3)nc2cc1OC [Example 73, 4-(6-ethynyl-7-methoxy-quinazolin-2-ylamino)-N-isopropylbenzamide] | < 5
C#Cc1cc2cnc(Nc3ccc(C(=O)N4CCOCC4)cc3)nc2cc1OC [Example 74, (4-(6-ethynyl-7-methoxy-quinazolin-2-ylamino)-phenyl)(morpholino)-methanone] | < 5
NC(=O)c1ccc(Nc2ncc3cc(-c4nccs4)ccc3n2)cc1 [Example 75, 4-(6-(thiazol-2-yl)-quinazolin-2-ylamino)-benzamide] | < 5
N#Cc1ccc2nc(Nc3ccc(N4CCOCC4)cc3)ncc2c1 [Example 76, 2-(4-morpholinophenyl-amino)quinazoline-6-carbonitrile] | < 5
Brc1ccc2nc(Nc3ccc(N4CCOCC4)cc3)ncc2c1 [Example 77, 6-bromo-N-(4-morpholino-phenyl)quinazolin-2-amine] | < 5
N#Cc1ccc2nc(Nc3ccc(C(N)=O)cc3)ncc2c1 [Example 78, 4-(6-cyanoquinazolin-2-ylamino)benzamide] | < 5
NC(=O)c1ccc(Nc2ncc3cc(Br)ccc3n2)cc1 [Example 79, 4-(6-bromoquinazolin-2-ylamino)benzamide] | < 5
C#Cc1cc(OC)c2nc(Nc3cccc(N4CCOCC4)c3)ncc2c1 [Example 80, 6-ethynyl-8-methoxy-N-(3-morpholinophenyl)-quinazolin-2-amine] | < 5
C#Cc1ccc2nc(Nc3ccc(C(=O)N4CCOCC4)cc3)ncc2c1 [Example 81, (4-(6-ethynylquinazolin-2-ylamino)phenyl)-(morpholino)methanone] | < 5
C#Cc1ccc2nc(Nc3ccc(N4CCOCC4)c(CN(C)C)c3)ncc2c1 [Example 82, N-(3-((dimethylamino)-methyl)-4-morpholino-phenyl)-6-ethynyl-quinazolin-2-amine] | < 5
COc1cc(Br)c(Cl)c2cnc(Nc3ccc(C(=O)NC(C)C)cc3)nc12 [Example 89, 4-(6-bromo-5-chloro-8-methoxyquinazolin-2-ylamino)-N-isopropyl-benzamide] | < 5
COc1ncccc1-c1cc(OC)c2nc(Nc3cc(CN(C)C)cc(NC(C)=O)c3)ncc2c1 [Example 94, N-(3-((dimethylamino)-methyl)-5-(8-methoxy-6-(2-methoxypyridin-3-yl)-quinazolin-2-ylamino)-phenyl)acetamide] | 5 to 10
COc1cc(-c2cncnc2)cc2cnc(Nc3cc(CN(C)C)cc(NC(C)=O)c3)nc12 [Example 95, N-(3-((dimethylamino)-methyl)-5-(8-methoxy-6-(pyrimidin-5-yl)-quinazolin-2-ylamino)-phenyl)acetamide] | < 5

Other lines, results leading:

IC50 [µM] | SMILES
< 5 | C#Cc1ccc2nc(Nc3cccc(CN(C)C)c3)ncc2c1 [Example 71, N-(3-((dimethylamino)-methyl)phenyl)-6-ethynylquinazolin-2-amine]
< 5 | C#Cc1ccc2nc(Nc3cc(CN(C)C)cc(NC(C)=O)c3)ncc2c1 [Example 83, N-(3-((dimethylamino)-methyl)-5-(6-ethynyl-quinazolin-2-ylamino)-phenyl)acetamide]
< 5 | CC(=O)Nc1cc(CN(C)C)cc(Nc2ncc3cc(-c4nccs4)ccc3n2)c1 [Example 84, N-(3-((dimethylamino)-methyl)-5-(6-(thiazol-2-yl)quinazolin-2-ylamino)-phenyl)acetamide]
< 5 | C#Cc1cc2cnc(Nc3cc(CN(C)C)cc(NC(C)=O)c3)nc2cc1OC [Example 85, N-(3-((dimethylamino)methyl)-5-(6-ethynyl-7-methoxy-quinazolin-2-ylamino)-phenyl)acetamide]
< 5 | C#Cc1cc(OC)c2nc(Nc3cc(CN(C)C)cc(NC(C)=O)c3)ncc2c1 [Example 86, N-(3-((dimethylamino)-methyl)-5-(6-ethynyl-8-methoxyquinazolin-2-ylamino)phenyl)acetamide]
< 5 | COc1cc(-c2nccs2)cc2cnc(Nc3cc(CN(C)C)cc(NC(C)=O)c3)nc12 [Example 87, N-(3-((dimethylamino)-methyl)-5-(8-methoxy-6-(thiazol-2-yl)quinazolin-2-ylamino)phenyl)acetamide]
< 5 | C#Cc1cc(OC)c2nc(Nc3cc(CN(C)C)cc(NC(C)=O)c3)ncc2c1Cl [Example 88, N-(3-(5-chloro-6-ethynyl-8-methoxyquinazolin-2-ylamino)-5-((dimethyl-amino)methyl)phenyl)-acetamide]
< 5 | C#Cc1ccc2nc(Nc3cc(CN(C)C)cc(NC(C)=O)c3)ncc2c1Cl [Example 90, N-(3-(5-chloro-6-ethynyl-quinazolin-2-ylamino)-5-((dimethylamino)methyl)-phenyl)acetamide]
< 5 | CC(=O)Nc1cc(CN(C)C)cc(Nc2ncc3c(Cl)c(-c4nccs4)ccc3n2)c1 [Example 91, N-(3-(5-chloro-6-(thiazol-2-yl)quinazolin-2-ylamino)-5-((dimethyl-amino)methyl)phenyl)-acetamide]
< 5 | CC(=O)Nc1cc(CN(C)C)cc(Nc2ncc3cc(-c4cncnc4)ccc3n2)c1 [Example 92, N-(3-((dimethylamino)-methyl)-5-(6-(pyrimidin-5-yl)quinazolin-2-ylamino)-phenyl)acetamide]
5 to 10 | COc1ncccc1-c1ccc2nc(Nc3cc(CN(C)C)cc(NC(C)=O)c3)ncc2c1 [Example 93, N-(3-((dimethylamino)-methyl)-5-(6-(2-methoxy-pyridin-3-yl)quinazolin-2-ylamino)phenyl)acetamide]
